Test results taken from PMC6572064, “Discovery of 2-(1-(3-(4-Chloroxyphenyl)-3-oxo- propyl)pyrrolidine-3-yl)-1H-benzo[d]imidazole-4-carboxamide: A Potent Poly(ADP-ribose) Polymerase (PARP) Inhibitor for Treatment of Cancer” (Molecules, 2019).
Like-named read-outs stand apart in the source and are kept apart here.

What was measured:
PARP-1 = target: T1, PARP-1 (Homo sapiens, UniProt P09874); assay: PARP-1 inhibition assay (PARP-1 Chemiluminescent Assay Kit, BPS Bioscience); assay type: biochemical; settings: 10 nM compound
T1 construct: purchased BPS Bioscience 80569
T1 sequence (P09874 whole entry): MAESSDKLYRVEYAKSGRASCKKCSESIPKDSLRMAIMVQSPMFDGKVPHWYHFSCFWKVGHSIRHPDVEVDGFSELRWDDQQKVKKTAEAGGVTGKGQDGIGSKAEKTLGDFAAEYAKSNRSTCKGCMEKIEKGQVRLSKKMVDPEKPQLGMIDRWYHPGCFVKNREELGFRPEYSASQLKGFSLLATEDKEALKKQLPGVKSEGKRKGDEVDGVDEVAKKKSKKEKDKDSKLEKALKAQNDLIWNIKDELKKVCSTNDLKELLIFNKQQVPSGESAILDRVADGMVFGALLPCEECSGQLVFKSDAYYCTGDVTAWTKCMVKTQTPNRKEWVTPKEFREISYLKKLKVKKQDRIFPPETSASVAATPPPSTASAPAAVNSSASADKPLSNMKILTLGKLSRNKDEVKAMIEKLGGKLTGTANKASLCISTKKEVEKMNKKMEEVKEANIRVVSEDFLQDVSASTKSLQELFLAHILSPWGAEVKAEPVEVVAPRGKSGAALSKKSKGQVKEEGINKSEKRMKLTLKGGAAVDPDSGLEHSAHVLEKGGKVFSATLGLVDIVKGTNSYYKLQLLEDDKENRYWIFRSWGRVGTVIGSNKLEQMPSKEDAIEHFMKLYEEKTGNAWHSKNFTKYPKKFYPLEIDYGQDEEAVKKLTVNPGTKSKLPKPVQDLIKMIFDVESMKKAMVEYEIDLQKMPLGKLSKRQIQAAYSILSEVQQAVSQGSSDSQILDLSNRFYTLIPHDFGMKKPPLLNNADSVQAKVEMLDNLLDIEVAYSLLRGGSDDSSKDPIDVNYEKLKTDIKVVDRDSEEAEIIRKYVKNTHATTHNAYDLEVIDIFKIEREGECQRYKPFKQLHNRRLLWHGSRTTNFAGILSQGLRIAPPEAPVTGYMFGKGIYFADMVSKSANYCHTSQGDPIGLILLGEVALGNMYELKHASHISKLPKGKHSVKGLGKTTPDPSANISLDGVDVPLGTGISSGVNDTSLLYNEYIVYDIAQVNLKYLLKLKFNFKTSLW
Procedure: (§1) The PARP-1 and PARP-2 inhibition assays were performed in outsourcing, by a CRO company, Shanghai Medicilon Inc. (Shanghai, China). […] Briefly, PARP-1 or PARP-2 biotinylated substrate was incubated with compounds or solvent control at varying concentrations and an assay buffer containing the PARP-1 or PARP-2 enzyme.

PARP-2 = target: T2, PARP-2 (Homo sapiens, UniProt Q9UGN5); assay: PARP-2 inhibition assay (PARP-2 Chemiluminescent Assay Kit, BPS Bioscience); assay type: biochemical; settings: 10 nM compound
T2 construct: purchased BPS Bioscience 80552
T2 sequence (Q9UGN5 whole entry): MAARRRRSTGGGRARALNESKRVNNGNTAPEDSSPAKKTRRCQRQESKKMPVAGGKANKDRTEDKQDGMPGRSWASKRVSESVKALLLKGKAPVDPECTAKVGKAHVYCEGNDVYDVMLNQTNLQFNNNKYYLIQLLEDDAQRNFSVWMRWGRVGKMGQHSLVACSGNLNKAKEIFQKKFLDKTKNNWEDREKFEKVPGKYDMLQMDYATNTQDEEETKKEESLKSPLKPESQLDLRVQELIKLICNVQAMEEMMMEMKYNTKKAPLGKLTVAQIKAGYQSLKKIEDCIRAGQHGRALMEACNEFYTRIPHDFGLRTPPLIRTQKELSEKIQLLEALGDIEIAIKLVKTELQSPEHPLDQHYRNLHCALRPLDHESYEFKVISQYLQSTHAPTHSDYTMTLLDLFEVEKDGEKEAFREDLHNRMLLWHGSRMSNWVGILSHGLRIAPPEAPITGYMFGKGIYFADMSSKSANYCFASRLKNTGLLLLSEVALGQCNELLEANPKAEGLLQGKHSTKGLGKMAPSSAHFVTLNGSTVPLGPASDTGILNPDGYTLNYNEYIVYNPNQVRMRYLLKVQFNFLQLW
Procedure: as §1

[1] = test system: CAPAN-1 (a BRCA-2-mutated pancreatic cancer cell line); assay: Cell proliferation assay, three-day, CellTiter-Glo, CAPAN-1; assay type: cell-based; settings: for inhibition at 0.00508 µM: CAPAN-1, 0.00508 uM; for inhibition at 0.0152 µM: CAPAN-1, 0.0152 uM; for inhibition at 0.0457 µM: CAPAN-1, 0.0457 uM; for inhibition at […]: CAPAN-1, 0.14 uM; for inhibition at 0.41 µM: CAPAN-1, 0.41 uM; for inhibition at 1.23 µM: CAPAN-1, 1.23 uM; for inhibition at 3.7 µM: CAPAN-1, 3.70 uM; for inhibition at 11.11 µM: CAPAN-1, 11.11 uM; for inhibition at 33.33 µM: CAPAN-1, 33.33 uM; for inhibition at 100 µM: CAPAN-1, 100.00 uM
Procedure: (§2) A three-day assay was conducted. A cell suspension was prepared. Cell density was counted by an automated cell counter and then diluted to the required density, according to seeding density. 50 μL cells were seeded into 384-well plate in growth medium according to the plate map. The cells were incubated at 37 °C, 5% CO2 overnight.
(§3) 200× compound solution in DMSO was prepared and diluted with growth medium to 26× final concentration by addition of 26 μL 200× compounds to 174 μL growth medium. Then 2 μL of diluted compound solution was added to cells and the cell was incubated at 37 °C, 5% CO2 for 72 h.
(§4) The assay plate was equilibrated to room temperature prior to measurement. 15 μL of CellTiter-Glo Reagent was added into each well and the contents were mixed for 2 min on an orbital shaker to induce cell lysis. The cells were incubated at room temperature for 60 min to stabilize luminescent signal. Luminescence was recorded on the Envision system.

[2] = test system: MDA-MB-436 (a BRCA-1-mutated breast cancer cell line); assay: Cell proliferation assay, three-day, CellTiter-Glo, MDA-MB-436; assay type: cell-based; settings: for inhibition at 0.00508 µM / inhibition at 0.0152 µM / inhibition at 0.0457 µM / inhibition at 0.41 µM / inhibition at 1.23 µM / inhibition at 3.7 µM / inhibition at 11.11 µM / inhibition at 33.33 µM / inhibition at 100 µM / IC50: Homo sapiens; for inhibition at 0.00508 µM: MDA-MB-436, MDA-MB-436, Conc. 0.00508 uM; for inhibition at 0.0152 µM: MDA-MB-436, MDA-MB-436, Conc. 0.0152 uM; for inhibition at 0.0457 µM: MDA-MB-436, MDA-MB-436, Conc. 0.0457 uM; for inhibition at 0.41 µM: MDA-MB-436, MDA-MB-436, Conc. 0.41 uM; for inhibition at 1.23 µM: MDA-MB-436, MDA-MB-436, Conc. 1.23 uM; for inhibition at 3.7 µM: MDA-MB-436, MDA-MB-436, Conc. 3.70 uM; for inhibition at 11.11 µM: MDA-MB-436, MDA-MB-436, Conc. 11.11 uM; for inhibition at 33.33 µM: MDA-MB-436, MDA-MB-436, Conc. 33.33 uM; for inhibition at 100 µM: MDA-MB-436, MDA-MB-436, Conc. 100.00 uM
Procedure: as §2, §3, §4

[3] = Homo sapiens, replicate 1, read-out: Inh % 1
[4] = Homo sapiens, replicate 2, read-out: Inh % 2

SMILES: NC(=O)c1cccc2[nH]c(C3CCN(CCC(=O)Nc4ccccc4)C3)nc12 (centres unmarked) [Compound 5cb, 2-(1-(3-Oxo-3-(Phenylamino)propyl)pyrrolidin-3-yl)-1H-benzo[d]imidazole-4-carboxamide]
- inhibition at 0.01 µM (PARP-1; supplement sheet, read-out: 10 nM inhibition% PAPR-1): 19.9%
- inhibition at 0.01 µM (PARP-1; read-out: PARP-1 Inhibition % (10 nM)): 19.9%
- inhibition at 0.01 µM (PARP-2; supplement sheet, read-out: 10 nM inhibition% PAPR-2): 41.2%
- inhibition at 0.01 µM (PARP-2; read-out: PARP-2 Inhibition % (10 nM)): 41.2%
- LogIC50 ([1]; CAPAN-1, curve-fit output, Log (uM)): 2.189
- IC50 ([1]; Homo sapiens, CAPAN-1, 72 h, CellTiter-Glo, read-out: CAPAN-1 IC50): > 100 µM
- inhibition at 0.00508 µM [1, 3]: -8%
- inhibition at 0.00508 µM [1, 4]: 3.3%
- inhibition at 0.0152 µM [1, 3]: 3.4%
- inhibition at 0.0152 µM [1, 4]: 17%
- inhibition at 0.0457 µM [1, 3]: -4.1%
- inhibition at 0.0457 µM [1, 4]: 5.6%
- inhibition at […] [1, 3]: -2%
- inhibition at […] [1, 4]: 2.2%
- inhibition at 0.41 µM [1, 3]: 10.3%
- inhibition at 0.41 µM [1, 4]: 6.1%
- inhibition at 1.23 µM [1, 3]: 12.4%
- inhibition at 1.23 µM [1, 4]: -0.64%
- inhibition at 3.7 µM [1, 3]: 11.2%
- inhibition at 3.7 µM [1, 4]: 9.9%
- inhibition at 11.11 µM [1, 3]: 5%
- inhibition at 11.11 µM [1, 4]: -4.1%
- inhibition at 33.33 µM [1, 3]: 3.6%
- inhibition at 33.33 µM [1, 4]: 21.6%
- inhibition at 100 µM [1, 3]: 39.1%
- inhibition at 100 µM [1, 4]: 32%
- inhibition at 0.00508 µM ([2]; replicate 1, read-out: Inh % 1): 0.0167%
- inhibition at 0.00508 µM ([2]; replicate 2, read-out: Inh % 2): -6.8%
- inhibition at 0.0152 µM ([2]; replicate 1, read-out: Inh % 1): -5.6%
- inhibition at 0.0152 µM ([2]; replicate 2, read-out: Inh % 2): -10.5%
- inhibition at 0.0457 µM ([2]; replicate 1, read-out: Inh % 1): -12.9%
- inhibition at 0.0457 µM ([2]; replicate 2, read-out: Inh % 2): -11.3%
- inhibition at 0.41 µM ([2]; replicate 1, read-out: Inh % 1): -10%
- inhibition at 0.41 µM ([2]; replicate 2, read-out: Inh % 2): -14%
- inhibition at 1.23 µM ([2]; replicate 1, read-out: Inh % 1): -9.6%
- inhibition at 1.23 µM ([2]; replicate 2, read-out: Inh % 2): -14.7%
- inhibition at 3.7 µM ([2]; replicate 1, read-out: Inh % 1): -9.8%
- inhibition at 3.7 µM ([2]; replicate 2, read-out: Inh % 2): -10.5%
- inhibition at 11.11 µM ([2]; replicate 1, read-out: Inh % 1): -2.5%
- inhibition at 11.11 µM ([2]; replicate 2, read-out: Inh % 2): -1.6%
- inhibition at 33.33 µM ([2]; replicate 1, read-out: Inh % 1): 9.7%
- inhibition at 33.33 µM ([2]; replicate 2, read-out: Inh % 2): 9.8%
- inhibition at 100 µM ([2]; replicate 1, read-out: Inh % 1): 58.3%
- inhibition at 100 µM ([2]; replicate 2, read-out: Inh % 2): 40%
- IC50 ([2]; MDA-MB-436, 72 h, CellTiter-Glo, read-out: MDA-MB-436 IC50): 90.4 µM
- IC50 ([2]; MDA-MB-436, 72 h, supplement Summary sheet, read-out: IC50): 90.4 µM
- IC50 ([2]; MDA-MB-436, curve fit list, no unit in the cell, concentration in uM, read-out: IC50): 90.4 µM
- LogIC50 ([2]; MDA-MB-436, curve fit on Log (uM) concentrations): 1.956
- Bottom ([2]; MDA-MB-436, curve fit parameter (Inh %)): -10.26
- Top ([2]; MDA-MB-436, curve fit parameter (Inh %), '= 100.0' is a constrained value): = 100.0
